The text below walks through data of patent US9783550B2, “Highly potent inhibitors of porcupine” (The Board of Regents of the University of Texas System, priority 2013, dated 2017).

Each structure is given as a SMILES string. Entries after “also recorded” stand apart in the source; their conditions may differ.

Series [1] has as its system Wnt mediated branching morphogenesis in cultured embryonic kidneys. To be noted: cultured mouse embryonic kidneys; cited from earlier work.
Series [2] relates to regeneration of the tailfin (Wnt-dependent process). To be noted: adult and juvenile fish, previously shown; cited from earlier work.
Series [3] in a line: Plasma metabolism assay, murine plasma. The series is classed as in vitro ADME, mouse. On the procedure: (§1) Plasma Metabolism Assay: Murine, rat, and human plasma, collected using acidified citrate dextrose (ACD) anticoagulant, were purchased from Bioreclamation (Westbury, N.Y.). IWP-L6 (27) was added to 1 mL of each plasma at a final concentration of 2 μM, the material was aliquoted into eppendorf tubes, and then incubated for the indicated time points in a 37° C. water bath. At each time point, an aliquot was removed and protein precipitated and compound extracted and analyzed as described above.

The nature of series [4]: S9 metabolism assay, murine liver S9 fractions. The note with it: 2 μM, 37° C., NADPH-regenerating system. In kind it is in vitro ADME, mouse. The procedure: S9 Metabolism Assay: Male ICR/CD-1 mouse S9 fractions were purchased from Celsis/In Vitro Technologies (Baltimore, Md.). 50 μL (1 mg) of S9 protein was added to a 15 mL glass screw cap tube. 700 μL of a 50 mM Tris, pH 7.5 solution, containing the compound of interest was added on ice. The final concentration of compound after addition of all reagents was 2 μM. 250 μL of an NADPH-regenerating system (1.7 mg/mL NADP, 7.8 mg/mL glucose-6-phosphate, 6 U/mL glucose-6-phosphate dehydrogenase in 2% w/v NaHCO3/10 mM MgCl2) was added and the tube placed in a 37° C. shaking water bath. At varying time points after addition of phase I cofactors, the reaction was stopped by the addition of 1 mL of methanol containing an internal standard compound, n-benzylbenzamide, and formic acid. The samples were incubated 10 min at room temperature and then spun once at 975×g in the glass tube. The supernatant was spun a second time at 16,000×g for 5 min in a microcentrifuge. The supernatant was analyzed by LC-MS/MS. Analytical methods were developed for each compound using an AB SCIEX 3200-QTrap, a combination triple quadrupole/ion trap instrument. Compound transitions utilized for quantitation were as follows: IWP-L6 (27): 473.2 to 303.1; aniline: 171.2 to 127.0; n-benzylbenzamide (internal standard): 212.1 to 91.1. […]

In series [5] the test system is posterior axis formation (Wnt/β-catenin dependent developmental process). In words: Zebrafish posterior axis formation assay. To be noted: zebrafish embryos, low micromolar concentrations, FIG. 7. The series is classed as in vivo. The procedure: Zebrafish embryos harboring a mCherry-based reporter of Wnt/β-catenin signaling (Moro, et al., 2012) were treated with increasing concentrations of IWP-L6 (FIG. 3 Compound 27) in the aquarium water. Fluorescence intensity of animals was quantified as before (Dodge et al., 2012). (FIG. 7B) Activity of the IWP compounds IWP-L6 (Compound 27), 30, 32, and 35 was measured using the posterior axis formation assay.

Series [6] relates to regeneration of the tailfin (Wnt-dependent process). In words: Zebrafish tailfin regeneration. In kind it is in vivo. An excerpt: Achieving transient repression of pathological Wnt response without incurring permanent damage to normal stem cell function is a key anticancer therapeutic goal.
Series [7] is described as follows: Plasma metabolism assay, human plasma. In kind it is in vitro ADME. To be noted: over 24 h; 2 μM, 37° C. The procedure: as §1
A short description of series [8]: Plasma metabolism assay, rat plasma. The series is classed as in vitro ADME. On the procedure: as §1
The test system of series [9] is phosphorylation of dishevelled 2 (Dv12) in HEK293 cells. As to the kind of experiment: Phosphorylation of dishevelled 2 in HEK293 cells (gel electrophoresis). The series is classed as cell-based. An excerpt:
FIG. 4—The Porcn inhibitor, IWP-L6 (FIG. 3 Compound 27), blocks the phosphorylation of the cytoplasmic Wnt pathway effector Dv12 shown through gel electrophoresis.
Among the five newly identified sub-nanomolar IWPs, compound 27 was selected for further biological evaluations and named IWP-L6. […] The in vivo stability of IWP-L6 (27) (FIG. 5) was further profiled. […] The major metabolites are the amide cleavage products. Similar species-dependent metabolitic profiles due to the involvement of carboxylesterase (CES) have been reported with other drug candidates (Eng, et al., 2010; Liu, et al., 2011) These observations are consistent with the elevated activity of CES in mouse and rat but not human (Berry, et al., 2009; Rudakova, et al., 2011; Bahar, et al., 2012).

For series [10], the system named is Wnt mediated branching morphogenesis in cultured embryonic kidneys. In words: Branching morphogenesis in cultured mouse embryonic kidneys. The series is classed as cell-based. On the procedure:
FIGS. 8A-B—(FIG. 8A) IWP-L6 (Compound 27) inhibits Wnt mediated branching morphogenesis in cultured embryonic kidneys. Hoxb7Cre; RosaTomato kidneys were dissected from E11.5 embryos and cultured at the air/media interface (Dodge, et al., 2012; Kamer, et al., 2010) Media was replaced every 24 hours. Images were captured every 24 hours using a Zeiss Lumar V12 fluorescent stereoscope. Magnitude: 80× at 0 hours and 24 hours; 60× at 48 hours. (FIG. 8B) The fold increase in the number of ureteric bud tips between time=0 and 48 hours for each treatment was quantified. Statistics were performed using Student T-test.
IWP2 (2) has been previously shown to specifically and reversibly block Wnt signaling and Wnt mediated branching morphogenesis in cultured mouse embryonic kidneys (Kamer, et al., 2010; Dodge, et al., 2012, which are incorporated by reference herein). […] Embryonic day (E) 11.5 kidneys in media containing various doses (1 nM to 1 μM) of IWP-L6 (27) were cultured. […] In comparison, a dose of 5 μM of IWP-2 (2) was required to obtain similar results (Dodge, et al., 2012; Karner, et al., 2010).

Series [11] deals with cell-autonomous Wnt signaling in mouse fibroblasts (L cells). As to the kind of experiment: Wnt signaling / Porcn-inhibiting activity, EC50 in mouse fibroblasts (L cells). In kind it is cell-based. An excerpt:
The four IWP lead compounds (1-4) were identified in the initial screen of 200,000 compounds (ChemDiv, ChemBridge, ComGenex, Prestwick and TimTek libraries) bear similar molecular skeletons (FIG. 1). […] The phthalazinone moiety of IWP-1 (1) and pyrimidinone moiety of IWP-2-4 (2-4) can be considered to be exchangeable scaffolding motifs for the compounds. The benzothiazole moiety appears to be a conserved motif and the phenyl group tolerates both electronic and steric perturbations.
While there is only 69% sequence identity between mouse Porcn and zebrafish Porcn, the in vitro EC50 values (FIG. 3) measured in mouse fibroblasts (L cells) correlate with the in vivo activity observed in fish but not linearly.

Another series in a line: Relative solubility. In kind it is physicochemical.

On to `Cc1ccc2nc(NC(=O)CSc3nc4c(c(=O)n3-c3ccccc3)SCC4)sc2c1` [IWP-2], for which the “dose required to obtain similar results (block of branching morphogenesis)” value in series [1] is 5 µM.

`Cc1ccc2nc(NC(=O)CSc3nc4c(c(=O)n3C)SC(C)C4)sc2c1` (centres unmarked) [IWP-12]: in [2], the “block of tailfin regeneration” value is “effectively block”.

As for `O=C(CSc1nc2c(c(=O)n1-c1ccccc1)SCC2)Nc1ccc(-c2ccccc2)cn1` [IWP-L6], the “t1/2 in murine plasma” value in series [3] (2 μM, 37° C.) came out at 2 min. Moreover, the “degradation in mouse plasma (in words)” value in [3] (as a function of time, FIG. 5) is on record as “much more significant degradation”. For the same molecule, the “t1/2 in murine liver S9 fractions” value in series [4] is 26 min. The “inhibition of posterior axis formation” value in series [5] is “effectively inhibit; also recorded: inhibits”. For the same molecule, the “fin regeneration after chemical removal” value in series [6] (resected caudal fins, 7 d in water containing compound, then removal) is reported as “nearly normal levels”. The “inhibition of tailfin regeneration (comparison in words)” value in [6] (zebrafish, FIG. 6) is given as “more potent activity; also recorded: more significant”. The “stability in human plasma” value in series [7] was “stable; also recorded: little degradation”. The “t1/2 in rat plasma” value in series [8] (2 μM, 37° C.) is on record as 190 min. In addition, the “degradation in rat plasma (in words)” value in series [8] (as a function of time, FIG. 5) is on record as “much more significant degradation”. In addition, in series [9], the “suppression of phosphorylation of dishevelled 2 (Dv12)” value is listed as “effectively suppressed; also recorded: blocks”. Also, the “dose that completely blocked branching morphogenesis” value in series [10] (E11.5 kidneys) is recorded as not below 50 nM. Further, the “dose that significantly reduced branching morphogenesis” value in [10] (E11.5 kidneys, relative to DMSO treated controls) was not below 10 nM. In addition, the “inhibition of Wnt mediated branching morphogenesis (in words)” value in series [10] (FIG. 8A) is recorded as “inhibits”. In addition, the “potency relative to IWP-2 (2)” value in [10] (cultured E11.5 mouse kidneys) is recorded as “at least 100 times”. In addition, the “EC50 (in words)” value in [11] is on record as “sub-nanomolar”. Also, the “Porcn-inhibiting activity (in words)” value in series [11] (general structure C, FIG. 3 series) is recorded as “slight improvement of activity”. The “solubility relative to IWP-2 (2) and 20” value in the series “Relative solubility” is given as “more soluble”.

Consider `O=C(Nc1cccc2cccnc12)c1ccc(N2C(=O)[C@@H]3[C@H](C2=O)[C@@H]2C=C[C@H]3C2)cc1` [IWR-1], for which, in series [2], the “block of tailfin regeneration” value was “effectively block”.
